Literature values, collected in patent US10272040B2, “Liposomal formulation for ocular drug delivery” (Nanyang Technological University, priority 2010, dated 2019).

Columns and labels:
[1] = other drugs in liposomes
[2] = SRC PhysProp Database

Row | SMILES | Drug:Lipid mole ratio, Literature [1] | log P [2]
1 | N.N.[Cl][Pt][Cl] [cisplatin] | 0.05 | 
2 | CC(C)OC(=O)CCC/C=C\C[C@@H]1[C@@H](CC[C@@H](O)CCc2ccccc2)[C@H](O)C[C@@H]1O [latanoprost] |  | 4.4
